For one molecule, Kd results are on record in paper PMC9224243, “Palmitic Amide Triggers Virus Life Cycle via Enhancing Host Energy Metabolism” (Frontiers in Microbiology, 2022).

The subject of this test is T1, acetate kinase.
T1 construct: gene ackA; purified recombinant acetate kinase
Briefly: ITC at […]°C ([…] protein, […] compound); also bead pull-down with MS and Western blot, and increased activity of the purified enzyme at […]. It counts as binding, Geobacillus sp. E263.

With `CCCCCCCCCCCCCCCC(N)=O` [palmitic amide], the Kd was 13.2 ± 28.1 µM.
